Assay results taken from US20020006958A1, “Substituted aminosalicylic acid amides with fungicidal effect and intermediate products for production thereof” (priority 1997, published 2002).

experiment: HPLC logP determination; assay type: physicochemical; settings: stated in the preparation examples

**Q.** Which chromatographic logP does the source give for `O=CNc1cccc(C(=O)Nc2ccc(Oc3ncnc(Oc4ccccc4)c3F)cc2)c1O` [Example 1, N-[4-(5-fluoro-6-phenoxy-pyrimidin-4-yloxy)-phenyl]-3-formyl-amino-2-hydroxy-benzamide] here?
**A.** Its chromatographic logP is 3.31.

**Q.** With `O=C(Nc1ccc(Oc2ncnc(Oc3ccccc3)c2F)cc1)c1cccc([N+](=O)[O-])c1OCc1ccccc1` [Example V-1, 2-benzyloxy-N-[4-(5-fluoro-6-phenoxy-pyrimidin-4-yloxy)-phenyl]-3-nitro-benzamide] as the compound, how does the chromatographic logP read?
**A.** Its chromatographic logP is 4.56.

**Q.** With `Nc1ccc(Oc2cc(Oc3ccccc3Cl)ncn2)cc1` [VII-a-1, 4-(4-aminophenoxy)-6-(2-chlorophenoxy)-pyrimidine] as the compound, how does the chromatographic logP read?
**A.** The chromatographic logP was 1.96.

**Q.** With `Nc1ccc(Oc2cc(Cl)ncn2)cc1` [XI-1, 4-(4-aminophenoxy)-6-chloro-pyrimidine] as the compound, how does the chromatographic logP read?
**A.** The chromatographic logP was 0.65.
